From US6720346B2, “Thiazole benzamide derivatives and pharmaceutical compositions for inhibiting cell proliferation” (Agouron Pharmaceuticals, Inc., priority 2001, dated 2004)
pIC50, pKi: −log10 of the molar value. Counter-ions that a name gives are not always drawn.

Columns and labels:
CDK2/cyclin A = target: T1, CDK2/cyclin A (Homo sapiens, UniProt P24941); assay: Inhibition of CDK2/cyclin A retinoblastoma kinase activity (Ki; % inhibition); format: biochemical; details: apparent Ki, CDK2/cyclin A, Rb substrate
T1 construct: made in house; host or cells: CDK2: insect cells (baculovirus); cyclin A: E. coli
Procedure: (§1) Cyclin-dependent kinase activity was measured by quantifying the enzyme-catalyzed, time-dependent incorporation of radioactive phosphate from [^32P]ATP or [^33P]ATP into a protein substrate. Unless noted otherwise, assays were performed in 96-well plates in a total volume of 50 μL, in the presence of 10 mM HEPES (N-[2-hydroxyethyl]piperazine-N′-[2-ethanesulfonic acid]) (pH 7.4), 10 mM MgCl2, 25 μM adenosine triphosphate (ATP), 1 mg/mL ovalbumin, 5 μg/mL leupeptin, 1 mM dithiothreitol, 10 mM β-glycerophosphate, 0.1 mM sodium vanadate, 1 mM sodium fluoride, 2.5 mM ethylene glycol-bis(β-aminoethyl ether)-N,N,N′N′-tetraacetic acid (EGTA), 2% (v/v) dimethylsulfoxide, and 0.03-0.4 μCi [^32/33P]ATP per reaction. Reactions were initiated with enzyme, incubated at 30° C., and terminated after 20 minutes by the addition of ethylenediaminetetraacetic acid (EDTA) to 250 mM. The phosphorylated substrate was then captured on a nitrocellulose or phosphocellulose membrane using a 96-well filtration manifold, and unincorporated radioactivity was removed by repeated washing with 0.85% phosphoric acid. Radioactivity was quantified by exposing the dried membranes to a phosphorimager.
(§2) Compounds from combinatorial libraries were screened from 96-well plates for % inhibition of CDK activity at 30 nM theoretical compound concentration. Inhibition was measured relative to control wells that contained all reaction components including 2% (v/v) DMSO but no compound, after subtraction of background radioactivity measured in the absence of enzyme. Apparent Ki values of discrete compounds were measured by assaying enzyme activity in the presence of different inhibitor compound concentrations and subtracting the background radioactivity measured in the absence of enzyme. The kinetic parameters (kcat, Km for ATP) were measured for each enzyme under the usual assay conditions by determining the dependence of initial rates on ATP concentration. Inhibition data were fit to an equation for competitive inhibition using Kaleidagraph (Synergy Software), or were fit to an equation for competitive tight-binding inhibition using the software KineTic (BioKin, Ltd.).
CDK2 was purified using published methodology (Rosenblatt et al., “Purification and Crystallization of Human Cyclin-dependent Kinase 2,” J. Mol. Biol., 230, 1993, pp. 1317-1319) from insect cells that had been infected with a baculovirus expression vector. […] A complex of CDK2 and proteolyzed cyclin A was prepared and purified by gel filtration. The substrate for this assay was the same Rb substrate fragment used for the CDK4 assays, and the methodology of the CDK2/delta cyclin A and the CDK4/delta cyclin D3 assays was essentially the same, except that CDK2 was present at 10 nM or 19 nM. The duration of the assay was 60 or 75 minutes, during which the time-dependence of product formation was linear and initial rate conditions were met.

human CDK4/cyclin D3 = target: T2, human CDK4/cyclin D3 (Homo sapiens, UniProt P11802); assay: Inhibition of CDK4/cyclin D retinoblastoma kinase activity (Ki; % inhibition); format: biochemical; details: apparent Ki, CDK4/cyclin D3, Rb substrate
T2 construct: made in house; host or cells: insect cells co-infected with baculovirus vectors
Procedure: as §1, §2
A complex of human CDK4 and genetically truncated (1-264) cyclin D3 was purified using traditional biochemical chromatographic techniques from insect cells that had been co-infected with the corresponding baculovirus expression vectors (see e.g., Meijer and Kim, “Chemical Inhibitors of Cyclin-Dependent Kinases,” Methods in Enzymol., 283 (1997), pp. 113-128.). The enzyme complex (5 nM) was assayed with 0.3-0.5 μg of purified recombinant retinoblastoma protein fragment (Rb) as a substrate. The engineered Rb fragment (residues 386-928 of the native retinoblastoma protein; 62.3 kDa) contains the majority of the phosphorylation sites found in the native 106-kDa protein, as well as a tag of six histidine residues for ease of purification. Phosphorylated Rb substrate was captured by microfiltration on a nitrocellulose membrane and quantified using a phosphorimager as described above. For measurement of tight-binding inhibitors, the assay duration was extended to 60 minutes, during which the time-dependence of product formation was linear and initial rate conditions were met.

HCT-116 cell line = assay: Inhibition of cell growth, MTT tetrazolium salt assay; format: cell-based; details: Homo sapiens, HCT-116, 120 h; MTT, three to five days
Procedure: Inhibition of cell growth was measured using the tetrazolium salt assay, which is based on the ability of viable cells to reduce 3-(4,5-dimethylthiazol-2-yl)-2,5-[2H]-diphenyltetrazolium bromide (MTT) to formazan (Mossman, Journal of Immunological Methods, 65, (1983), pp. 55-58). The water-insoluble purple formazan product was then detected spectrophotometrically. The HCT-116 cell line was used as a representative cancer cell line and grown in 96-well plates. Cells were plated in McCoy's 5A Medium at a volume of 135 μl/well. Plates were incubated for four hours before addition of inhibitor compounds. Different concentrations of inhibitor compounds were added in 0.5% (v/v) dimethylsulfoxide (15 μL/well), and cells were incubated at 37° C. (5% CO2) for three to five days. At the end of the incubation, MTT was added to a final concentration of 0.2 mg/mL, and cells were incubated for 4 hours more at 37° C. After centrifugation of the plates and removal of medium, the absorbance of the formazan (solubilized in dimethylsulfoxide) was measured at 540 nm. The concentration of inhibitor compound causing 50% (IC50) or 90% ([…]) inhibition of growth was determined from the linear portion of a semi-log plot of inhibitor concentration versus percent inhibition. All results were compared to control cells treated only with 0.5% (v/v) dimethylsulfoxide.

T2 sequence (P11802 whole entry): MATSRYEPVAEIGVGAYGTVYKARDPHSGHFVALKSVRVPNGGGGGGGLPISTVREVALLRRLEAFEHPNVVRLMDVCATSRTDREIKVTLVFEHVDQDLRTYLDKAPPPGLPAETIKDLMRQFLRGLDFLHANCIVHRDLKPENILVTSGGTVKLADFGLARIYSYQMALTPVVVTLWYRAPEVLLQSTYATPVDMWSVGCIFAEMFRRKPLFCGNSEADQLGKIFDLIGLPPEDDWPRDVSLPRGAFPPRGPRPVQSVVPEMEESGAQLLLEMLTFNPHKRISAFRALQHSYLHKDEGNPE
T2 sequence (P30281 1-264 partner limits assumed): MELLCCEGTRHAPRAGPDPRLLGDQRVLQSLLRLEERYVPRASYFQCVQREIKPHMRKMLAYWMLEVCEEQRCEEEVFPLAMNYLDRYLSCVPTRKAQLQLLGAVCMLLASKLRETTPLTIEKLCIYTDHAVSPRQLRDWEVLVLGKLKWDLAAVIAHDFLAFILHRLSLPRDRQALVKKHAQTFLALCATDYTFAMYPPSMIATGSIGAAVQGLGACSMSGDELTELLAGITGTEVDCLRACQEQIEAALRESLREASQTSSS

| pKi (CDK2/cyclin A) | pKi (human CDK4/cyclin D3) | pIC50 (HCT-116 cell line) | Structure (SMILES) |
| --- | --- | --- | --- |
| 6.96 | 8.15 | 7.05 | C[C@@H]1CCC[C@H](C)N1CCNC(=O)c1ccc(Nc2nc(N)c(C(=O)c3c(F)cccc3F)s2)cc1 [Example A51] |
| 6.77 | 8.05 | 6.89 | CC(C)(CNC(=O)c1ccc(Nc2nc(N)c(C(=O)c3c(F)cccc3F)s2)cc1)N1CCCCC1 [Example A52, 4-[4-Amino-5-(2,6-difluoro-benzoyl)-thiazol-2-ylamino]-N-(2-methyl-2-piperidin-1-yl-propyl)-benzamide] |
| 6.92 | 8.40 | 6.82 | CC1(C)CCCC(C)(C)N1CCNC(=O)c1ccc(Nc2nc(N)c(C(=O)c3c(F)cccc3F)s2)cc1 [Example A53, 4-[4-Amino-5-(2,6-difluoro-benzoyl)-thiazol-2-ylamino]-N-[2-(2,2,6,6-tetramethyl-piperidin-1-yl)-ethyl]-benzamide] |
| 7.28 | 8.05 | 6.22 | CN1C[C@H](O)C[C@H]1CNC(=O)c1ccc(Nc2nc(N)c(C(=O)c3c(F)cccc3F)s2)cc1 [Example A54, 4-{4-Amino-5-(2,6-difluoro-benzoyl)-thiazol-2-ylamino]-N-(4R-hydroxy-1-methyl-pyrrolidin-2S-yl-methyl)-benzamide] |
| 7.25 | 7.77 | 5.49 | Nc1nc(Nc2ccc(C(=O)NCCn3ccnc3)cc2)sc1C(=O)c1c(F)cccc1F [Example A55, 4-[4-Amino-5-(2,6-difluoro-benzoyl)-thiazol-2-ylamino]-N-[2-(imidazol-1-yl)-ethyl]-benzamide Dihydrochloride Salt] |
| 7.17 | 8.10 | 5.35 | CC1(C)CC(CNC(=O)c2ccc(Nc3nc(N)c(C(=O)c4c(F)cccc4F)s3)cc2)C(C)(C)N1 (stereo not drawn) [Example A56, 4-[4-Amino-5-(2,6-difluoro-benzoyl)-thiazol-2-ylamino]-N-(2,2,5,5-tetramethyl-pyrrolidin-3R,S-ylmethyl)-benzamide Dihydrochloride Salt] |
| 7.27 | 8.00 | 5.42 | C[C@@H]1CN(CCNC(=O)c2ccc(Nc3nc(N)c(C(=O)c4c(F)cccc4F)s3)cc2)C[C@H](C)N1 [Example A57] |
| 6.08 | 7.01 | 5.54 | Cc1ccncc1C(=O)c1sc(Nc2ccc(C(=O)NC[C@@H]3CCCN3C)cc2)nc1N [Example A59, 4-{4-Amino-5-[1-(4-methyl-pyridin-3-yl)methanoyl]-thiazol-2-ylamino}-N-(1-methyl-pyrrolidin-2S-ylmethyl)-benzamide Hydrochloride Salt] |
| 7.04 | 7.51 | 6.70 | COc1cc(Nc2nc(N)c(C(=O)c3c(F)cccc3F)s2)ccc1C(=O)NC(C)CN(C)C (stereo not drawn) [Example A60, 4-[4-Amino-5-(2,6-difluoro-benzoyl)-thiazol-2-ylamino]-N-(2RS-dimethylamino-1-methyl-ethyl)-2-methoxy-benzamide] |
| 7.43 | 6.63 | 6.66 | CN(C)CC(C)(C)NC(=O)c1ccc(Nc2nc(N)c(C(=O)c3c(F)cccc3F)s2)cc1 [Example A61, 4-[4-Amino-5-(2,6-difluoro-benzoyl)-thiazol-2-ylamino]-N-(2-dimethylamino-1,1-dimethyl-ethyl)-benzamide Dihydrochloride] |
| 8.55 | 6.92 | 7.36 | Cc1ccsc1C(=O)c1sc(Nc2ccc(C(=O)N[C@H](C)CN(C)C)cc2)nc1N [Example A62, 4-{4-Amino-5-[1-(3-methyl-thiophen-2-yl)-methanoyl]-thiazol-2-ylamino}-N-(2-dimethylamino-1R-methyl-ethyl)-benzamide Trifluoroacetic Acid Salt] |
| 7.82 | 7.74 | 5.80 | Cn1cnc(CNC(=O)c2ccc(Nc3nc(N)c(C(=O)c4c(F)cccc4F)s3)cc2)c1 [Example A63, 4-[4-Amino-5-(2,6-difluoro-benzoyl)-thiazol-2-ylamino]-N-(1-methyl-imidazol-4-yl-methyl)-benzamide Trifluoroacetic Acid Salt] |
| 7.72 | 7.66 | < 5.30 | Cn1cncc1CNC(=O)c1ccc(Nc2nc(N)c(C(=O)c3c(F)cccc3F)s2)cc1 [Example A64, 4-[4-Amino-5-(2,6-difluoro-benzoyl)-thiazol-2-ylamino]-N-(1-methylimidazol-5-yl-methyl)-benzamide] |
| 6.80 | 7.24 | < 6.30 | C[C@@H](NC(=O)c1ccc(Nc2nc(N)c(C(=O)c3c(F)cccc3F)s2)cc1)C(=O)O [Example A65] |
| 7.74 | 6.46 | 6.92 | C[C@H](CN(C)C)NC(=O)c1ccc(Nc2nc(N)c(C(=O)c3ccccc3F)s2)cc1 [Example A66, Trifluoroacetic Acid Salt] |
| 7.89 | 7.06 | 7.11 | CN1CCC[C@H]1CNC(=O)c1ccc(Nc2nc(N)c(C(=O)c3ccccc3F)s2)cc1 [Example A67, 4-{4-Amino-5-(2-fluoro-benzoyl)-thiazol-2-ylamino}-N-(1-methyl-pyrrolidin-2S-ylmethyl)-benzamide Trifluoroacetic Acid Salt] |
| 8.07 | 7.35 | 7.12 | Cc1cc(F)c(C(=O)c2sc(Nc3ccc(C(=O)NC[C@@H]4CCCN4C)cc3)nc2N)c(F)c1 [Example A68, 4-{4-Amino-5-(2,6-difluoro-4-methyl-benzoyl)-thiazol-2-ylamino}-N-(1-methyl-pyrrolidin-2S-ylmethyl)-benzamide] |
| 7.84 | 6.63 | 5.68 | C[C@H](NC(=O)c1ccc(Nc2nc(N)c(C(=O)c3c(F)cccc3F)s2)cc1)[C@@H]1CCCN1C [Example A69] |
| 8.21 | 6.89 | 7.64 | Cc1ccsc1C(=O)c1sc(Nc2ccc(C(=O)NC[C@@H]3CCCN3C)cc2)nc1N [Example A70, 4-{4-Amino-5-[1-(3-methyl-thiophen-2-yl)-methanoyl]-thiazol-2-ylamino}-N-(1-methyl-pyrrolidin-2S-ylmethyl)-benzamide] |
| 8.25 | 7.09 | 7.47 | CN1CCC[C@H]1CNC(=O)c1ccc(Nc2nc(N)c(C(=O)c3c(F)cccc3Cl)s2)cc1 [Example A71, 4-[4-Amino-5-(2-chloro-6-fluoro-benzoyl)-thiazol-2-ylamino]-N-(1-methyl-pyrrolidin-2S-ylmethyl)-benzamide] |
